Results taken from patent publication CN117771387A, “糖响应性复合物及其制备方法和应用” (priority 2022, dated 2024).

Columns and labels:
[1] = tested on: 1型糖尿病小鼠; assay: Blood glucose lowering by Glu-insulin in STZ-induced type 1 diabetic mice; assay type: in vivo, C57BL/6小鼠; settings: s.c., insulin-equivalent dose 1.5mg/kg
[2] = tested on: AKT信号磷酸化; assay: In vitro activity of Glu-insulin: AKT phosphorylation in HepG2 cells (western blot); assay type: cell-based; settings: 10 min, 0-100nM

“Glu-insulin: Recombinant human insulin modified with gluconic acid at A1 (N-terminus of the α chain) [葡萄糖酸基胰岛素]” was tested, and the “Blood glucose lowering effect compared with recombinant human insulin” value [1] was “仍有与重组人胰岛素类似的降糖效果” and the “Activity on AKT phosphorylation compared with recombinant human insulin” value [2] was “显示出与未修饰的重组人胰岛素相似的活性”.
